For the experiment, the system named is L1210 leukemia ip in BDF1 mice, survival T/C. As to the kind of experiment: NCI In Vivo Anticancer Drug Screen. Data for tumor model L1210 Leukemia (intraperitoneal) in B6D2F1 (BDF1) mice. The note with it: endpoint: mean survival time, higher = longer survival. The procedure, abridged: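 Read-out is survival time, reported as the treated-group measurement over the vehicle-control measurement.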

Setting [1] is: dose: 12.5 mg/kg/injection, schedule: Q04DX002 (ip), vehicle: saline.
Setting [2] is: dose: 100.0 mg/kg/injection, schedule: Q04DX003 (ip), vehicle: saline with Tween-80.
The mark [3] stands for this setting: dose: 200.0 mg/kg/injection, schedule: Q04DX003 (ip), vehicle: saline with Tween-80.
[4] abbreviates: dose: 400.0 mg/kg/injection, schedule: Q04DX003 (ip), vehicle: saline with Tween-80.
[5] abbreviates: dose: 100.0 mg/kg/injection, schedule: Q04DX002 (ip), vehicle: Klucel (hydroxypropylcellulose) (HPC).
Setting [6] is: dose: 100.0 mg/kg/injection, schedule: Q01DX009 (ip), vehicle: saline.
Where [7] appears, read: dose: 100.0 mg/kg/injection, schedule: Q04DX003 (ip), vehicle: saline.
Where [8] appears, read: dose: 200.0 mg/kg/injection, schedule: Q04DX003 (ip), vehicle: saline.
The mark [9] stands for this setting: dose: 400.0 mg/kg/injection, schedule: Q04DX003 (ip), vehicle: saline.

Where “and” joins values, the source holds several entries; their conditions need not be identical. Equal values may be shown once. Toxic doses and inconclusive results are not listed.

As for `C[CH2][Sn]([CH2]C)([CH2]C)[O]C(=O)CO`, the T/C is 93 % of control (dose: 3.12 mg/kg/injection, schedule: Q04DX002 (ip), vehicle: saline); 117 % of control (dose: 6.25 mg/kg/injection, schedule: Q04DX002 (ip), vehicle: saline); 104 % of control under setting [1].
As for `COC1OC(COC(c2ccccc2)(c2ccccc2)c2ccccc2)C(O)C(O)C1NC(C)=O` (centres undefined), the T/C was 96 % of control (dose: 100.0 mg/kg/injection, schedule: Q01DX001 (ip), vehicle: Klucel (hydroxypropylcellulose) (HPC)); 96 % of control (dose: 200.0 mg/kg/injection, schedule: Q01DX001 (ip), vehicle: Klucel (hydroxypropylcellulose) (HPC)); 101 % of control (dose: 400.0 mg/kg/injection, schedule: Q01DX001 (ip), vehicle: Klucel (hydroxypropylcellulose) (HPC)).
For the compound `Cc1cc(=O)cc(C(=O)O)o1`, the T/C reads like this: (dose: 75.0 mg/kg/injection, schedule: Q01DX001 (ip), vehicle: saline) 107 % of control; (dose: 150.0 mg/kg/injection, schedule: Q01DX001 (ip), vehicle: saline) 107 % of control; (dose: 300.0 mg/kg/injection, schedule: Q01DX001 (ip), vehicle: saline) 109 % of control.
For the compound `CCOC(=O)C1C2C=CC(N3C(=O)c4ccccc4C3=O)CC21` (centres undefined), the T/C runs as follows: (dose: 100.0 mg/kg/injection, schedule: Q01DX009 (ip), vehicle: gum acacia) 92 % of control; (dose: 200.0 mg/kg/injection, schedule: Q01DX009 (ip), vehicle: gum acacia) 91 % of control; (dose: 400.0 mg/kg/injection, schedule: Q01DX009 (ip), vehicle: gum acacia) 97 % of control.
For the compound `CCCCCCCCCCCCCCCCCCNC(=S)Nc1ccccc1`, the T/C under setting [2] is 95 % of control, the T/C under setting [3] was 90 % of control and the T/C under setting [4] was 92 % of control.
`COc1ccc(C2=NNC(c3ccc(OC)cc3)=NN2)cc1`: the T/C is, setting by setting: (dose: 100.0 mg/kg/injection, schedule: Q01DX001 (ip), vehicle: other) 104 % of control; (dose: 200.0 mg/kg/injection, schedule: Q01DX001 (ip), vehicle: other) 96 % of control; (dose: 400.0 mg/kg/injection, schedule: Q01DX001 (ip), vehicle: other) 93 % of control.
As to `O=C(CCl)N(c1ccccc1)c1ccccc1`, the T/C runs as follows: (dose: 25.0 mg/kg/injection, schedule: Q04DX002 (ip), vehicle: Klucel (hydroxypropylcellulose) (HPC)) 101 % of control and 107 % of control; (dose: 50.0 mg/kg/injection, schedule: Q04DX002 (ip), vehicle: Klucel (hydroxypropylcellulose) (HPC)) 103 % of control; under setting [5], 95 % of control and 92 % of control.
In the case of `CCN(O)C(N)=O`, the T/C by setting is: (dose: 34.5 mg/kg/injection, schedule: Q01DX009 (ip), vehicle: saline) 107 % of control; (dose: 52.0 mg/kg/injection, schedule: Q01DX009 (ip), vehicle: saline) 111 % of control; (dose: 62.0 mg/kg/injection, schedule: Q03HX024 (ip), vehicle: saline) 101 % of control; (dose: 78.0 mg/kg/injection, schedule: Q01DX009 (ip), vehicle: saline) 113 % of control; (dose: 117.0 mg/kg/injection, schedule: Q01DX009 (ip), vehicle: saline) 110 % of control and 122 % of control (2×); (dose: 125.0 mg/kg/injection, schedule: Q03HX024 (ip), vehicle: saline) 98 % of control. The T/C by setting is: (dose: 178.0 mg/kg/injection, schedule: Q01DX009 (ip), vehicle: saline) 112 % of control; (dose: 600.0 mg/kg/injection, schedule: Q01DX009 (ip), vehicle: saline) 166 % of control and 167 % of control.
Regarding `COc1c(Cl)c(Cl)c(Cl)c(Cl)c1Cl`, the T/C under setting [6] is 89 % of control; the T/C (dose: 100.0 mg/kg/injection, schedule: Q04DX003 (ip), vehicle: acetone) was 95 % of control; the T/C (dose: 200.0 mg/kg/injection, schedule: Q01DX009 (ip), vehicle: saline) was 89 % of control; the T/C (dose: 200.0 mg/kg/injection, schedule: Q04DX003 (ip), vehicle: acetone) is 94 % of control; the T/C (dose: 400.0 mg/kg/injection, schedule: Q04DX003 (ip), vehicle: acetone) is 96 % of control.
As to `CCN1C(=O)CC2(CCN(C)CC2)C1=O`, the T/C (dose: 0.78 mg/kg/injection, schedule: Q01DX009 (ip), vehicle: saline) was 98 % of control; the T/C (dose: 1.56 mg/kg/injection, schedule: Q01DX009 (ip), vehicle: saline) is 102 % of control; the T/C (dose: 3.12 mg/kg/injection, schedule: Q01DX009 (ip), vehicle: saline) is 95 % of control; the T/C (dose: 6.25 mg/kg/injection, schedule: Q01DX009 (ip), vehicle: saline) is 117 % of control; the T/C (dose: 12.5 mg/kg/injection, schedule: Q01DX009 (ip), vehicle: saline) was 117 % of control; the T/C (dose: 25.0 mg/kg/injection, schedule: Q01DX009 (ip), vehicle: saline) is 98 % of control. Besides, the T/C is 113 % of control (dose: 25.0 mg/kg/injection, schedule: Q04DX003 (ip), vehicle: saline); 104 % of control and 113 % of control (dose: 50.0 mg/kg/injection, schedule: Q01DX009 (ip), vehicle: saline); 115 % of control (dose: 50.0 mg/kg/injection, schedule: Q04DX003 (ip), vehicle: saline); 93 % of control and 100 % of control under setting [6]; 105 % of control under setting [7]; 112 % of control under setting [8]. Besides, the T/C is 93 % of control (dose: 400.0 mg/kg/injection, schedule: Q01DX009 (ip), vehicle: saline) and 109 % of control under setting [9].
Take `Cn1c(=O)c2c(ncn2CCO)n(C)c1=O` (tested in a mixture with another compound): the T/C is 89 % of control (dose: 100.0 mg/kg/injection, schedule: Q01DX009 (ip), vehicle: saline with Tween-80); 103 % of control under setting [7]; 94 % of control (dose: 200.0 mg/kg/injection, schedule: Q01DX009 (ip), vehicle: saline with Tween-80); 97 % of control under setting [8]; 87 % of control (dose: 400.0 mg/kg/injection, schedule: Q01DX009 (ip), vehicle: saline with Tween-80); 108 % of control under setting [9].
With `O=c1c2ccccc2[nH]c2ncccc12`, the T/C reads like this: under setting [5], 96 % of control; (dose: 200.0 mg/kg/injection, schedule: Q04DX002 (ip), vehicle: Klucel (hydroxypropylcellulose) (HPC)) 92 % of control.
For the compound `CCCCOC(=O)C1OC1(CC)c1ccccc1` (centres undefined), the T/C is, setting by setting: (dose: 100.0 mg/kg/injection, schedule: Q04DX002 (ip), vehicle: saline with Tween-80) 88 % of control; (dose: 200.0 mg/kg/injection, schedule: Q04DX002 (ip), vehicle: saline with Tween-80) 97 % of control; (dose: 400.0 mg/kg/injection, schedule: Q04DX002 (ip), vehicle: saline with Tween-80) 100 % of control.
As for `CCN(CC)CCC(C#N)(CC=C(C)C)c1cccc2ccccc12` (centres undefined), the T/C is 100 % of control (dose: 12.5 mg/kg/injection, schedule: Q01DX009 (ip), vehicle: Klucel (hydroxypropylcellulose) (HPC)); 110 % of control (dose: 25.0 mg/kg/injection, schedule: Q01DX009 (ip), vehicle: Klucel (hydroxypropylcellulose) (HPC)); 97 % of control (dose: 50.0 mg/kg/injection, schedule: Q01DX009 (ip), vehicle: Klucel (hydroxypropylcellulose) (HPC)).
As for `[CH3][Pb]([CH3])([CH3])[O]C(=O)C(F)(F)F`, the T/C under setting [1] is 90 % of control.
In the case of `O=C1CSC(=S)N1c1ccccc1`, the T/C (dose: 100.0 mg/kg/injection, schedule: Q01DX001 (ip), vehicle: carboxymethylcellulose (CMC)) is 95 % of control; the T/C under setting [2] was 96 % of control; the T/C (dose: 200.0 mg/kg/injection, schedule: Q01DX001 (ip), vehicle: carboxymethylcellulose (CMC)) was 97 % of control; the T/C under setting [3] is 93 % of control; the T/C (dose: 400.0 mg/kg/injection, schedule: Q01DX001 (ip), vehicle: carboxymethylcellulose (CMC)) is 93 % of control; the T/C under setting [4] was 90 % of control.
Regarding `Brc1ccc([I+]c2ccccc2)cc1`, the T/C is, setting by setting: (dose: 50.0 mg/kg/injection, schedule: Q01DX001 (ip), vehicle: saline) 103 % of control; (dose: 100.0 mg/kg/injection, schedule: Q01DX001 (ip), vehicle: saline) 106 % of control; (dose: 200.0 mg/kg/injection, schedule: Q01DX001 (ip), vehicle: saline) 95 % of control.
Regarding `Cc1ccc([S+](c2ccccc2)c2cc(C)ccc2C)cc1` (centres undefined), the T/C reads like this: (dose: 2.5 mg/kg/injection, schedule: Q01DX001 (ip), vehicle: carboxymethylcellulose (CMC)) 103 % of control; (dose: 5.0 mg/kg/injection, schedule: Q01DX001 (ip), vehicle: carboxymethylcellulose (CMC)) 102 % of control.

Values taken from PubChem BioAssay AID248 (DTP/NCI, 2004).
